In ChEMBL document CHEMBL1157646, “Melanogenesis inhibitors from the desert plant Anastatica hierochuntica in B16 melanoma cells” (Bioorg Med Chem, 2010):
Calls of active or inactive are those of the source. The rule behind the calls is not given here.

Tests used:
cells [1] = conditions: Mus musculus, B16-4A5, 72 h, read-out: INH
Description: Inhibition of theophylline-stimulated melanogenesis in mouse B16-4A5 cells at 10 uM after 72 hrs

cells [2] = conditions: Mus musculus, B16-4A5, 72 h, read-out: INH; remark: listed apart in the source
Description: Inhibition of theophylline-stimulated melanogenesis in mouse B16-4A5 cells at 3 uM after 72 hrs

cells [3] = conditions: Mus musculus, B16-4A5, 72 h, read-out: INH; remark: listed apart in the source
Description: Inhibition of theophylline-stimulated melanogenesis in mouse B16-4A5 cells at 1 uM after 72 hrs

cells [4] = conditions: Mus musculus, B16-4A5, 72 h, read-out: INH; remark: listed apart in the source
Description: Inhibition of theophylline-stimulated melanogenesis in mouse B16-4A5 cells at 30 uM after 72 hrs

[5] = Toxicity in mouse B16-4A5 cells assessed as inhibition of cell proliferation at 30 uM in presence of 1 mM theophylline after 72 hrs by WST8 dye reduction assay; format: cell-based
[6] = Toxicity in mouse B16-4A5 cells assessed as inhibition of cell proliferation at 10 uM in presence of 1 mM theophylline after 72 hrs by WST8 dye reduction assay; format: cell-based
[7] = target: T1, Tyrosinase (Agaricus bisporus) (UniProt O42713); experiment: Inhibition of mushroom tyrosinase assessed as inhibition of melanin production from dopachrome by autoxidation at 100 uM
T1 sequence (whole entry): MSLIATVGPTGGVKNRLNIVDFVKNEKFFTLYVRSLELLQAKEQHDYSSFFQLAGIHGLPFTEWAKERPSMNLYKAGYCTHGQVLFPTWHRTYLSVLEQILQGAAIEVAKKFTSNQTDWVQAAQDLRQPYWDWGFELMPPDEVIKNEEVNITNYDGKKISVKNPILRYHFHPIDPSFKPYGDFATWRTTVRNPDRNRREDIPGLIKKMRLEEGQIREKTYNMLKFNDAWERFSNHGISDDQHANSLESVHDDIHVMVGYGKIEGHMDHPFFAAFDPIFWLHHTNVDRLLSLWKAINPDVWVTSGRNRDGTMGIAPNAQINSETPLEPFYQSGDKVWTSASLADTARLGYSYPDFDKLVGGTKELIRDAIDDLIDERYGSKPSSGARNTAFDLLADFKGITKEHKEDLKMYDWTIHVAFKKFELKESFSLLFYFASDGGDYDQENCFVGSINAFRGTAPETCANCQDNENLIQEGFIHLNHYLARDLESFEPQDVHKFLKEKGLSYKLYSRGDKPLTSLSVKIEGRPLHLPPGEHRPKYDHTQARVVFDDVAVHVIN

[8] = Toxicity in mouse B16-4A5 cells assessed as inhibition of cell proliferation at 3 uM in presence of 1 mM theophylline after 72 hrs by WST8 dye reduction assay; format: cell-based
[9] = Toxicity in mouse B16-4A5 cells assessed as inhibition of cell proliferation in presence of 1 mM theophylline after 72 hrs by WST8 dye reduction assay; format: cell-based
[10] = Toxicity in mouse B16-4A5 cells assessed as inhibition of cell proliferation at 1 uM in presence of 1 mM theophylline after 72 hrs by WST8 dye reduction assay; format: cell-based
[11] = target: T1, Tyrosinase (Agaricus bisporus); experiment: Inhibition of mushroom tyrosinase at 3 uM
[12] = target: T1, Tyrosinase (Agaricus bisporus); experiment: Inhibition of mushroom tyrosinase at 1 uM

Compound	inhibition at 10 µM (cells [1]) [%]	inhibition at 3 µM (cells [2]) [%]	inhibition at 1 µM (cells [3]) [%]	inhibition at 30 µM (cells [4]) [%]	inhibition at 72 h, 30 µM [5] [%]	inhibition at 72 h, 10 µM [6] [%]	inhibition [7]	inhibition at 72 h, 3 µM [8] [%]	IC50 at 72 h [9] [µM]	inhibition at 72 h, 1 µM [10] [%]	inhibition [11] [%]	inhibition [12] [%]
COc1cc(C(=O)C(O)CO)ccc1O (single isomer, unassigned; (+))	24	18.1	16.5	25.8	< 8.8							
COc1cc(/C=C/C(=O)O)ccc1O [FERULATE]				< 15.4	< 8.8							
COc1cc([C@H]2Oc3c(OC)cc(/C=C/C=O)cc3[C@@H]2CO)ccc1O	28.4	2.1	-2.8	79.1	40.3	13.6	inactive	5.5	> 100	3.8		
O=C1c2c(O)cc(O)cc2O[C@H](c2ccc(O)cc2)[C@H]1O [DIHYDROKAEMPFEROL]	-5.2	14.4	6	7	< 8.8							
O=Cc1ccc(O)cc1 [4-HYDROXYBENZALDEHYDE]				< 15.4	17.6	-21		-13.6		-8.4		
COc1cc([C@H](O)[C@@H](CO)c2ccc(O)c(OC)c2)ccc1O (relative stereo)				< 15.4	< 8.8							
O=c1c(O)c(-c2ccc(O)cc2)oc2cc(O)cc(O)c12 [KAEMPFEROL]	18.6	7.9	-0.6	58.1	16.3	13	inactive	10.2		3		
O=C1c2c(O)cc(O)cc2O[C@H](c2ccc(O)c(O)c2)[C@H]1O [(+)-TAXIFOLIN]	6.7	3.1	3.5	21.7	< 8.8							
COc1cc(C=O)ccc1O [VANILLIN]				< 15.4	< 8.8							
COc1cc([C@H]2Oc3c(OC)cc(/C=C/CO)cc3[C@@H]2CO)ccc1O	18.6	-5.4	-1.6	72.7	23.3	-1.6	inactive	0.3	> 100	-2.7		
COc1ccc(C(=O)O)cc1 [p-ANISIC ACID]				< 15.4	< 8.8							
COc1ccc([C@H]2Oc3c(OC)cc(/C=C/CO)cc3[C@@H]2CO)cc1OC [Hierochin B]	7.6	2.2	-1.6	50.6	23.8	10.9		1.3	> 100	0.3		
O=C1c2c(O)cc(O)cc2O[C@@H](c2ccc(O)c(O)c2)[C@H]1O [(+)-EPITAXIFOLIN]	6.9	6.8	3.5	13.7	< 8.8							
COc1cc([C@H]2Oc3c(O)cc([C@H]4Oc5cc(O)cc(O)c5C(=O)[C@@H]4O)cc3[C@@H]2CO)ccc1O [SILICRISTIN B]	1.6	-1.3	4.2	1.2	< 8.8							
O=Cc1ccc(O)c(O)c1 [PROTOCATECHUALDEHYDE]	40.4	13.8	8.5	57.9	11.4	-3.7	inactive	-4.7		-4.7	2.3	3.1
COc1cc([C@H]2Oc3cc(O)cc(O)c3C(=O)[C@@H]2O)ccc1O	10.6	8	9.8	16.2	< 8.8							
COC/C=C/c1cc(O)c2c(c1)[C@@H](CO)[C@H](c1ccc(O)c(OC)c1)O2 [HIEROCHIN A]	32.5	8	1.9	51.8	< 8.8		inactive					
